The source of these data is patent US20250270222A1, “AP2 ASSOCIATED KINASE 1 INHIBITORS AND USES THEREOF” (Satellos Bioscience Inc., priority 2023, published 2025).

This assay deals with AAK1 (amino acids T27-A365) (Homo sapiens (Human), UniProt Q2M2I8). The assay is described as follows: AAK1 pSENs assay. It counts as biochemical. The settings on record: ratio of AAK1 pSENs activity to GAK pSENs activity. As to the method: The recombinant proteins were independently expressed in Esherichia coli BL21(DE3) cells cultured in Luria-Bertani (LB) medium until OD600 reached 0.6-0.8, then cooled to 15° C., and supplemented with 0.5 mM isopropyl 1-thio-D-galactopyranoside (IPTG) induce protein expression 16 h. Cells were harvested and resuspended in lysis buffer (50 mM HEPES pH 7.5, 500 mM NaCl, 5 mM imidazole, 5% glycerol, 0.5 mM Tris (2-carboxyethyl) phosphine (TCEP), cOmplete Protease Inhibitor Tablet (Roche)) and lysed by microfluidics high pressure homogenizer (UH-06, Union-Biotech). Proteins were purified using Ni-Affinity chromatography (His FF column, Bestchrom) and eluted stepwise in binding buffer with 20-300 mM imidazole. Removal of the hexahistidine tag was performed at 4° C. overnight using recombinant TEV protease and reacted with BirA to obtain the corresponding biotinylated-AAK1. BIKE or GAK proteins. Further separated in the reverse Strep column (Strep-Tactin® XT, IBA). The Biotin elution sample was collected containing untagged biotinylated protein was then purified by Ion-exchange chromatography (Mono Q 10/100 GL, Cytiva) and Size-exclusion chromatography (HiLoad 16/600 Superdex 200 pg, Cytiva). The pure protein was stored in a storage buffer 50 mM HEPES (pH 7.5), 300 mM NaCl, 5% glycerol at −80° C. Protein were characterized by SDS-PAGE. LC-MS and aSEC.
AAK1 (amino acids T27-A365), sequence (Q2M2I8 27-365): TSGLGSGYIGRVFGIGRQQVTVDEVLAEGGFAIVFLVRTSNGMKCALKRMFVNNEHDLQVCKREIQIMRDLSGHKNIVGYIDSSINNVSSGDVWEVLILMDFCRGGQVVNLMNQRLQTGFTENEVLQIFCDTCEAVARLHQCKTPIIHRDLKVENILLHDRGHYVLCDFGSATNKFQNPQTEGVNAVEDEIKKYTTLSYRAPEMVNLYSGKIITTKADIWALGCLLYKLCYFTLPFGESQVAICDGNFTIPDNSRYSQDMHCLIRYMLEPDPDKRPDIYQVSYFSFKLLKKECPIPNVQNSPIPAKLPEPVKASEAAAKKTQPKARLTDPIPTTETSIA
This example describes one illustrative method for determining the IC50 of the compounds of the present invention against AAK1 (amino acids T27-A365). AAK1 protein was dissolved at 20 nM in 1× enzyme solution (50 mM HEPES pH7.5, 10 mM MgCl2, 1 mM DTT, 1% glycerol, 0.5 mM EGTA, 0.01% Briji35, 0.02% BSA) and 12.5 ul was incubated with 250 nl DMSO or 250 nl compound in DMSO at 25° C. for 15 min. The reaction was started by addition of 12.5 ul of 30 uM AQT0759 (Assayquant, CSKS-AQT0759B) and 70 uM ATP which were diluted in 1× substrate dilution buffer (50 mM HEPES pH7.5, 10 mM MgCl2, 1 mM DTT, 1% glycerol, 0.5 mM EGTA, 0.01% Briji35).
For the compound `CC1(OC(=O)N2CCN(c3ccn4ncc(-c5ccc(C(N)=O)cc5)c4n3)CC2)COC1` [Compound I-3, (3-methyloxetan-3-yl)-4-[3-(4-carbamoylphenyl)pyrazolo[1,5-a]pyrimidin-5-yl]piperazine-1-carboxylate], the “AAK1:GAK pSENs Selectivity” value is “B (B: 0.016-0.075)”.

`CC1(OC(=O)N2CCN(c3ccn4ncc(-c5cccc(C(N)=O)c5)c4n3)CC2)COC1` [Compound I-4, (3-methyloxetan-3-yl)-4-[3-(3-carbamoylphenyl)pyrazolo[1,5-a]pyrimidin-5-yl]piperazine-1-carboxylate]: the “AAK1:GAK pSENs Selectivity” value is “C (C: 0.076-0.15)”.

With `COc1ncccc1-c1cnn2ccc(N3CCN(C(=O)OC4CCNC4)CC3)nc12` (centres unmarked) [Compound I-5, Pyrrolidin-3-yl4-[3-(2-methoxy-3-pyridyl)pyrazolo[1,5-a]pyrimidin-5-yl]piperazine-1-carboxylate], the “AAK1:GAK pSENs Selectivity” value is given as “B (B: 0.016-0.075)”.

Regarding `COc1ncccc1-c1cnn2ccc(N3CCN(C(=O)OC4(C)CCNC4)CC3)nc12` (centres unmarked) [Compound I-8, (3-Methylpyrrolidin-3-yl)-4-[3-(2-methoxy-3-pyridyl)pyrazolo[1,5-a]pyrimidin-5-yl]piperazine-1-carboxylate], the “AAK1:GAK pSENs Selectivity” value is reported as “B (B: 0.016-0.075)”.

On to `C#CC1(OC(=O)N2CCN(c3ccn4ncc(-c5cccnc5OC)c4n3)CC2)CCNC1` (centres unmarked) [Compound I-9, (3-Ethynylpyrrolidin-3-yl) 4-[3-(2-methoxy-3-pyridyl)pyrazolo[1,5-a]pyrimidin-5-yl]piperazine-1-carboxylate], for which the “AAK1:GAK pSENs Selectivity” value is “B (B: 0.016-0.075)”.

`CN(CCNc1ccn2ncc(-c3cccnc3OC3CC3)c2n1)C(=O)OC(C)(C)C` [Compound I-12, tert-butyl N-[2-[[3-[2-(Cyclopropoxy)-3-pyridyl]pyrazolo[1,5-a]pyrimidin-5-yl]amino]ethyl]-N-methyl-carbamate]: the “AAK1:GAK pSENs Selectivity” value is listed as “A (A: ≤0.015)”.

Turning to `CC1(OC(=O)N2CCN(c3ccn4ncc(-c5cccnc5OC5CC5)c4n3)CC2)CCNC1` (centres unmarked) [Compound I-13-5, (3-Methylpyrrolidin-3-yl) 4-[3-[2-(cyclopropoxy)-3-pyridyl]pyrazolo [1,5-a]pyrimidin-5-yl]piperazine-1-carboxylate], the “AAK1:GAK pSENs Selectivity” value is “B (B: 0.016-0.075)”.

In the case of `C[C@@]1(OC(=O)N2CCN(c3ccn4ncc(-c5cccnc5OC5CC5)c4n3)CC2)CCNC1` [Compound I-14, [(3R)-3-Methylpyrrolidin-3-yl]-4-[3-[2-(cyclopropoxy)-3-pyridyl]pyrazolo[1,5-a]pyrimidin-5-yl]piperazine-1-carboxylate], the “AAK1:GAK pSENs Selectivity” value was “A (A: ≤0.015)”.

`C#C[C@]1(OC(=O)N2CCN(c3ccn4ncc(-c5cccnc5OC5CC5)c4n3)CC2)CCNC1` [Compound I-15, [(3R)-3-Ethynylpyrrolidin-3-yl]-4-[3-[2-(cyclopropoxy)-3-pyridyl]pyrazolo[1,5-a]pyrimidin-5-yl]piperazine-1-carboxylate]: the “AAK1:GAK pSENs Selectivity” value is recorded as “B (B: 0.016-0.075)”.

For the compound `C#C[C@@]1(OC(=O)N2CCN(c3ccn4ncc(-c5cccnc5OC5CC5)c4n3)CC2)CCNC1` [Compound I-16, [(3S)-3-Ethynylpyrrolidin-3-yl]-4-[3-[2-(cyclopropoxy)-3-pyridyl]pyrazolo[1,5-a]pyrimidin-5-yl]piperazine-1-carboxylate], the “AAK1:GAK pSENs Selectivity” value was “B (B: 0.016-0.075)”.

For the compound `C#CC1(OC(=O)N2CCN(c3ccn4ncc(-c5cccnc5OC5CC5)c4n3)CC2)CCNC1` (centres unmarked) [Compound I-16-7, 3-ethynylpyrrolidin-3-yl-4-(3-(2-cyclopropoxypyridin-3-yl)pyrazolo[1,5-a]pyrimidin-5-yl)piperazine-1-carboxylate], the “AAK1:GAK pSENs Selectivity” value was “B (B: 0.016-0.075)”.

Regarding `CC(C)Oc1ncccc1-c1cnn2ccc(N3CCN(C(=O)OC4(C)CCNC4)CC3)nc12` (centres unmarked) [Compound I-21-5, (3-Methylpyrrolidin-3-yl)-4-[3-(2-isopropoxy-3-pyridyl)pyrazolo[1,5-a]pyrimidin-5-yl]piperazine-1-carboxylate], the “AAK1:GAK pSENs Selectivity” value is given as “B (B: 0.016-0.075)”.

In the case of `CC(C)Oc1ncccc1-c1cnn2ccc(N3CCN(C(=O)O[C@]4(C)CCNC4)CC3)nc12` [Compound I-22, [(3R)-3-methylpyrrolidin-3-yl]4-[3-(2-isopropoxy-3-pyridyl)pyrazolo[1,5-a]pyrimidin-5-yl]piperazine-1-carboxylate], the “AAK1:GAK pSENs Selectivity” value is “B (B: 0.016-0.075)”.

For the compound `CC(C)(C)OC(=O)N1CCC(N2C[C@H](OC(=O)N3CCN(c4ccn5ncc(-c6cccnc6OC6CC6)c5n4)CC3)CC2=O)CC1` [Compound I-31, (R)-1-(1-(tert-Butoxycarbonyl)piperidin-4-yl)-5-oxopyrrolidin-3-yl 4-(3-(2-cyclopropoxypyridin-3-yl)pyrazolo[1,5-a]pyrimidin-5-yl)piperazine-1-carboxylate], the “AAK1:GAK pSENs Selectivity” value was “D (D: 0.16-1.00)”.

With `CN(CCN1C[C@@H](OC(=O)N2CCN(c3ccn4ncc(-c5cccnc5OC5CC5)c4n3)CC2)CC1=O)C(=O)OC(C)(C)C` [Compound I-35, (S)-1-(2-((tert-butoxycarbonyl)(methyl)amino)ethyl)-5-oxopyrrolidin-3-yl-4-(3-(2-cyclopropoxypyridin-3-yl)pyrazolo[1,5-a]pyrimidin-5-yl)piperazine-1-carboxylate], the “AAK1:GAK pSENs Selectivity” value is on record as “B (B: 0.016-0.075)”.

In the case of `O=C1C[C@H](OC(=O)N2CCN(c3ccn4ncc(-c5cccnc5OC5CC5)c4n3)CC2)CN1CCOCc1ccccc1` [Compound I-37, [(3S)-1-(2-benzyloxyethyl)-5-oxo-pyrrolidin-3-yl]-4-[3-[2-(cyclopropoxy)-3-pyridyl]pyrazolo[1,5-a]pyrimidin-5-yl]piperazine-1-carboxylate], the “AAK1:GAK pSENs Selectivity” value is recorded as “A (A: ≤0.015)”.

As for `O=C1C[C@H](OC(=O)N2CCN(c3ccn4ncc(-c5cccnc5NC5CC5)c4n3)CC2)CN1` [Compound I-45, [(3S)-5-Oxopyrrolidin-3-yl]4-[3-[2-(cyclopropylamino)-3-pyridyl]pyrazolo[1,5-a]pyrimidin-5-yl]piperazine-1-carboxylate], the “AAK1:GAK pSENs Selectivity” value was “E (E: >1.00)”.

Regarding `C[C@@]1(OC(=O)N2CCN(c3ccn4ncc(-c5cccnc5OC5CC5)c4n3)CC2)CCN(CC(N)=O)C1` [Compound I-51, (R)-1-(2-amino-2-oxoethyl)-3-(methylpyrrolidin-3-yl)-4-(3-(2-cyclopropoxypyridin-3-yl)pyrazolo[1,5-a]pyrimidin-5-yl)piperazine-1-carboxylate], the “AAK1:GAK pSENs Selectivity” value is “A (A: ≤0.015)”.

For the compound `CN(CCNc1ccn2ncc(-c3cccnc3OC3CC3)c2n1)C(=O)O[C@]1(C)CCNC1` [Compound I-61, (R)-3-methylpyrrolidin-3-yl (2-((3-(2-cyclopropoxypyridin-3-yl)pyrazolo[1,5-a]pyrimidin-5-yl)amino)ethyl)(methyl)carbamate], the “AAK1:GAK pSENs Selectivity” value was “B (B: 0.016-0.075)”.

Regarding `COc1ncccc1-c1cnn2ccc(NCCN(C)C(=O)O[C@H]3CO[C@H]4OCC[C@H]43)nc12` [Compound I-70, (3R,3aS,6aR)-hexahydrofuro[2,3-b]furan-3-yl (2-((3-(2-methoxypyridin-3-yl)pyrazolo[1,5-a]pyrimidin-5-yl)amino)ethyl)(methyl)carbamate], the “AAK1:GAK pSENs Selectivity” value is on record as “B (B: 0.016-0.075)”.
